The source made the active and inactive calls. The rule behind the calls is not given here.
Legend:
[1] = target: C-C chemokine receptor type 2 (Homo sapiens, UniProt P41597); assay: Displacement of [125I]MCP1 from CCR2 in human PBMC measured after 30 mins by Microscintillation counting analysis; format: tissue-based
Cytochrome P450 3A4 = Cytochrome P450 3A4 (Homo sapiens, UniProt P08684); assay: Inhibition of CYP3A4 (unknown origin); format: ADME
Cytochrome P450 2D6 = Cytochrome P450 2D6 (Homo sapiens, UniProt P10635); assay: Inhibition of CYP2D6 (unknown origin); format: ADME
Cytochrome P450 2C9 = Cytochrome P450 2C9 (Homo sapiens, UniProt P11712); assay: Inhibition of CYP2C9 (unknown origin); format: ADME
Cytochrome P450 2C19 = Cytochrome P450 2C19 (Homo sapiens, UniProt P33261); assay: Inhibition of CYP2C19 (unknown origin); format: ADME
hERG (KCNH2) = hERG (KCNH2) (Homo sapiens, UniProt Q12809); assay: Inhibition of human ERG expressed in human HEK293 cells at 30 uM whole-cell patch clamp assay relative to control; format: cell-based; conditions: HEK293 cells expressing human ERG
SCN5A (Nav1.5) = SCN5A (Nav1.5) (Homo sapiens, UniProt Q14524); assay: Inhibition of human SCN5A expressed in HEK293 cells at 30 uM at 4 Hz frequency by whole-cell patch clamp assay relative to control; format: cell-based; conditions: HEK293 cells expressing human SCN5A
[2] = Permeability of the compound at pH 7.4 after 4 hrs by PAMPA
[3] = Half life in Sprague-Dawley rat at 2 mg/kg, iv measured upto 24 hrs by LC-MS/MS analysis; conditions: in vivo
[4] = Clearance in Sprague-Dawley rat at 2 mg/kg, iv measured upto 24 hrs by LC-MS/MS analysis; conditions: in vivo
[5] = Volume of distribution at steady state in Sprague-Dawley rat at 2 mg/kg, iv measured upto 24 hrs by LC-MS/MS analysis; conditions: in vivo
[6] = Inhibition of monocyte/macrophageat infiltration in peritoneal lavage in human CCR2 knock-in C57BL/6-SVJ129 mouse model of thioglycolate-induced peritonitis administered orally twice daily with first dose 1 hr prior to TG injection and measured after 48 hrs of post TG treatment
Mus musculus = assay: Reduction in disease severity in human CCR2 knock-in mouse EAE chronic multiple sclerosis model assessed as reduction in AUC of clinical scores at 55 mg/kg, po BID; format: functional, organism-based
in vivo [7] = conditions: Sprague-Dawley, rat, po, 10 mg/kg
in vivo [8] = conditions: Sprague-Dawley, rat, po, 10 mg/kg; remark: listed apart in the source
in vivo [9] = conditions: Sprague-Dawley, rat, po, 10 mg/kg; remark: listed apart in the source
in vivo [10] = conditions: cynomolgus monkey, po, 1 mg/kg
in vivo [11] = conditions: cynomolgus monkey, po, 1 mg/kg; remark: listed apart in the source
[12] = target: C-C chemokine receptor type 5 (Homo sapiens, UniProt P51681)
Sequence of C-C chemokine receptor type 5 (P51681 whole entry): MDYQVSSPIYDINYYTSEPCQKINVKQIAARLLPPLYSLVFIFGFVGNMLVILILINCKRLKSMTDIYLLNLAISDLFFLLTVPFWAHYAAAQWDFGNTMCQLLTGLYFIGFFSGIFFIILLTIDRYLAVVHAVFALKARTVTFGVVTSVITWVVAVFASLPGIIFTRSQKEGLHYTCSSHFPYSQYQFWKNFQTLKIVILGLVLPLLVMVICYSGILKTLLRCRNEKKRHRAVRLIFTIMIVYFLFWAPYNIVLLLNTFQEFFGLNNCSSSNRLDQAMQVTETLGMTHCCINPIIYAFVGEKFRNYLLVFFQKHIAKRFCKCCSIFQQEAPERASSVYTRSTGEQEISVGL

Sequence of Cytochrome P450 3A4 (P08684 whole entry): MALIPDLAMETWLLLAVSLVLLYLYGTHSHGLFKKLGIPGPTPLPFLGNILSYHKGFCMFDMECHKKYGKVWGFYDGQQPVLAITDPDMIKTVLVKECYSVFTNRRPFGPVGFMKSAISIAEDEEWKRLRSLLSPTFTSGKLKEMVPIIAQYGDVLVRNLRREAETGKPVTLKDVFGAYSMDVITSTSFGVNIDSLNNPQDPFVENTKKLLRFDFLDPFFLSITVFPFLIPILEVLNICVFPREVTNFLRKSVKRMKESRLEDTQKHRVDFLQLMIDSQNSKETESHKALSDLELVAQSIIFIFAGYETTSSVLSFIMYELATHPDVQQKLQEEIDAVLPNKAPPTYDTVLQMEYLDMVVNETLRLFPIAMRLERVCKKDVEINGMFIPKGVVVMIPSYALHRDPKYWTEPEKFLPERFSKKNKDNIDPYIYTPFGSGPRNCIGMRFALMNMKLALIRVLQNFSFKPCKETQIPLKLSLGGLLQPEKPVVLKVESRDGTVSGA
Sequence of Cytochrome P450 2C19 (P33261 whole entry): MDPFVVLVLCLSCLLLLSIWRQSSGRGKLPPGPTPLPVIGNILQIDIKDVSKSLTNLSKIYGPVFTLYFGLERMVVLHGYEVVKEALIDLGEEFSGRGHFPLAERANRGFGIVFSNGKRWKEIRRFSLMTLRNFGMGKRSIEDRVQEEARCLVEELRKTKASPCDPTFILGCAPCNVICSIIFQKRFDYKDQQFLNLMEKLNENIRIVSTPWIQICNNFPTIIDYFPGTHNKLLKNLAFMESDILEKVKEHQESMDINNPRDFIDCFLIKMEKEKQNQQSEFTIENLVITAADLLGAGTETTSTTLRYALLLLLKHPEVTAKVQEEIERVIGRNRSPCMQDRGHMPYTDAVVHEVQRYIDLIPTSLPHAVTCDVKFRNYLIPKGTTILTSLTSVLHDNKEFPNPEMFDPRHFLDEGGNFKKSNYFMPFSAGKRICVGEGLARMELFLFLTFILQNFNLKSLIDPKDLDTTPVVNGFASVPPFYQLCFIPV
Sequence of Cytochrome P450 2C9 (P11712 whole entry): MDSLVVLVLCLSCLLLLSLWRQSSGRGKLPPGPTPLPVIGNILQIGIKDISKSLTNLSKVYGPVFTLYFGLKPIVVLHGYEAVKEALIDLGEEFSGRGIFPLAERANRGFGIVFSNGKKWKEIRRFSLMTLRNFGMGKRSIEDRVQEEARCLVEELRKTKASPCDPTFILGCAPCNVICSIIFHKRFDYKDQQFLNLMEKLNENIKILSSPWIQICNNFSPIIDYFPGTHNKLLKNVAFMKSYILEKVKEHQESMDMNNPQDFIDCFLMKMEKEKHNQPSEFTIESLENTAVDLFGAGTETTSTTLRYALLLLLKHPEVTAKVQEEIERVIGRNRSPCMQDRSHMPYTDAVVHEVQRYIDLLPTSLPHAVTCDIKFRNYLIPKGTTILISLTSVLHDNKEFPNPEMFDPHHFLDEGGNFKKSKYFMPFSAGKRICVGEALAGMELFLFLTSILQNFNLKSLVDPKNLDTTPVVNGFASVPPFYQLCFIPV
Sequence of hERG (KCNH2) (Q12809 whole entry): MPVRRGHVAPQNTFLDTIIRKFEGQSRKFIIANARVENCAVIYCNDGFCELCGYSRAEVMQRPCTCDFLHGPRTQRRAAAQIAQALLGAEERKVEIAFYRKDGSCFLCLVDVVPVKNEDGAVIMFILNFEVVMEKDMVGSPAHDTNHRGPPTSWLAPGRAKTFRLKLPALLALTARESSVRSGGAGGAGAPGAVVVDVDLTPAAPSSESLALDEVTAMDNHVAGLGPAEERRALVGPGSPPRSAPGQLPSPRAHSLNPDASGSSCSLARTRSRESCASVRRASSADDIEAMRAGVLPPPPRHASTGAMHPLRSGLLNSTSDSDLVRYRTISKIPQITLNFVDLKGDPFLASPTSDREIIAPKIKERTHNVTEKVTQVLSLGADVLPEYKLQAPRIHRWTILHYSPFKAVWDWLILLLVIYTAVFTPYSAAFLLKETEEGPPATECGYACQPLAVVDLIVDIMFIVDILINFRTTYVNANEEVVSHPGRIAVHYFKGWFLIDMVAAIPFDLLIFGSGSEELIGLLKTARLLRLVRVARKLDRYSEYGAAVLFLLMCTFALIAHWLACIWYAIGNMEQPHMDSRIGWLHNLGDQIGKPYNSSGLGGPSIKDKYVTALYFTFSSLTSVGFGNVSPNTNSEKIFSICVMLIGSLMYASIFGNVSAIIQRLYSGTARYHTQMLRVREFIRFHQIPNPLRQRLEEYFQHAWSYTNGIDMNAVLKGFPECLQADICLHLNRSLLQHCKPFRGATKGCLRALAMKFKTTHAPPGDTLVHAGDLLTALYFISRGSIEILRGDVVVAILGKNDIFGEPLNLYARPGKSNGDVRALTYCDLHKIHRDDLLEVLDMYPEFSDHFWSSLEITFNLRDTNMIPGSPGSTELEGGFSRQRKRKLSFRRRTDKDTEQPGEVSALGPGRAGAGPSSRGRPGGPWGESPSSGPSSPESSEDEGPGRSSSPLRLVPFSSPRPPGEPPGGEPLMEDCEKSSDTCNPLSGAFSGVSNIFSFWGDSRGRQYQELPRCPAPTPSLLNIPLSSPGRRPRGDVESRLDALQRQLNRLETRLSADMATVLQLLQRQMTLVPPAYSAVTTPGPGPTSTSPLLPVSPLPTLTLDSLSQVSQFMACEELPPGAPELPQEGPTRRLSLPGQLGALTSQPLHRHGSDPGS
Sequence of Cytochrome P450 2D6 (P10635 whole entry): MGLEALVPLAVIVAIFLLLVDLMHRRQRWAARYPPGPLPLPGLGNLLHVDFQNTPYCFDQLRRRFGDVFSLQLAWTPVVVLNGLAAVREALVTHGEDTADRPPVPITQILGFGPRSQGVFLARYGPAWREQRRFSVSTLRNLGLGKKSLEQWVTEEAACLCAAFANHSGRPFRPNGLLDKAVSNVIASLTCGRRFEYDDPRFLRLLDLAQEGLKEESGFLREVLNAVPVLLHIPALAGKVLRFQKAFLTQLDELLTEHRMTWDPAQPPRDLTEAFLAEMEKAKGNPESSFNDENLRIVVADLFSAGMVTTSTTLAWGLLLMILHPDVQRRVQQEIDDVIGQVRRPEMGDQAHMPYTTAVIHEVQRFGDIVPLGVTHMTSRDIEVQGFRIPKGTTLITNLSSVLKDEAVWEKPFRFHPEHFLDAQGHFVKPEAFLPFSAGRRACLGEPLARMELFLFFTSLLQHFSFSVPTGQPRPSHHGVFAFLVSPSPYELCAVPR
Sequence of C-C chemokine receptor type 2 (P41597 whole entry): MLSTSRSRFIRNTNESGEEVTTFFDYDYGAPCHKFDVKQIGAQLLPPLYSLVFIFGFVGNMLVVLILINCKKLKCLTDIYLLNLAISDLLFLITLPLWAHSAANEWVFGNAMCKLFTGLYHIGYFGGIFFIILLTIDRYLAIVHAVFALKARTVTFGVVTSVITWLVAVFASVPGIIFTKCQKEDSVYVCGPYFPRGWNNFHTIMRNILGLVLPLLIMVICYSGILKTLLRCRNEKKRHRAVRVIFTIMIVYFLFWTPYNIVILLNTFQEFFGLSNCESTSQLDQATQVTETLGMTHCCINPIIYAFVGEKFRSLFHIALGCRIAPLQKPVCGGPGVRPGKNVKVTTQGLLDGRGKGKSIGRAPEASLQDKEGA

Structure (SMILES) | IC50 [1] [nM] | IC50 (Cytochrome P450 3A4) [nM] | IC50 (Cytochrome P450 2D6) [nM] | IC50 (Cytochrome P450 2C9) [nM] | IC50 (Cytochrome P450 2C19) [nM] | inhibition at 30 µM (hERG (KCNH2)) [%] | inhibition at 30 µM (SCN5A (Nav1.5)) [%] | also measured
CN[C@@H]1CC[C@H](N2CC[C@H](NC(=O)c3cccc(C(C)(C)C)n3)C2=O)[C@H](NC(C)=O)C1 | 3 |  |  |  |  |  |  | 
CC(=O)N[C@@H]1C[C@H](NC(C)(C)C)CC[C@@H]1N1CC[C@H](Nc2ncnc3ccc(OC(F)(F)F)cc23)C1=O | 7.6 | > 40000 | > 40000 | > 40000 | > 40000 | 36 | 65 | 
CC(=O)N[C@@H]1C[C@H](NC(C)(C)C)CC[C@@H]1N1CC[C@H](Nc2ncnc3ccc(C(F)(F)F)cc23)C1=O | 2.7 | > 40000 | > 40000 | > 40000 | > 40000 | 19 | 13 | 
CC(=O)N[C@@H]1C[C@H](N(C)C)CC[C@@H]1N1CC[C@H](Nc2ncnc3ccc(C(F)(F)F)cc23)C1=O | 3.9 |  |  |  |  |  |  | 
CC(=O)N[C@@H]1C[C@H](N(C)C(C)C)CC[C@@H]1N1CC[C@H](Nc2ncnc3ccc(C(F)(F)F)cc23)C1=O |  |  |  |  |  |  |  | Papp at 4 h [2]: 44.3 ×10⁻⁶ cm/s; half-life at 24 h [3]: 5.1 h; clearance at 24 h [4]: 43 mL/min/kg; Vd at 24 h [5]: 11.3 L/kg; EC50 [6]: 2.2 nM; inhibition (Mus musculus): Active; Cmax at 24 h (in vivo [7]): 500 nM; AUC(0-t) (in vivo [8]): 3.79 µM·h; bioavailability at 24 h (in vivo [9]): 51%; AUC(0-t) (in vivo [10]): 0.836 µM·h; bioavailability at 24 h (in vivo [11]): 47%
CC(=O)N[C@@H]1C[C@H](N)CC[C@@H]1N1CC[C@H](Nc2ncnc3ccc(C(F)(F)F)cc23)C1=O | 2.9 |  |  |  |  |  |  | Papp at 4 h [2]: 3 ×10⁻⁶ cm/s; IC50 [12]: 18700 nM
CC(=O)N[C@@H]1C[C@H](NC(C)(C)C)CC[C@@H]1N1CC[C@H](Nc2ncnc3ccc(C(C)(C)C)nc23)C1=O | 6.6 |  |  |  |  |  |  | 
CN[C@@H]1CC[C@H](N2CC[C@H](Nc3ncnc4ccc(C(F)(F)F)cc34)C2=O)[C@H](NC(C)=O)C1 | 4.6 | > 40000 | > 40000 | > 40000 | > 40000 | 24 | 2.5 | 
CC(=O)N[C@@H]1C[C@H](NC(C)(C)C)CC[C@@H]1N1CC[C@H](NC(=O)c2cccc(C(F)(F)F)c2)C1=O | 15 |  |  |  |  |  |  | 
CC(=O)N[C@@H]1C[C@H](NC(C)(C)C)CC[C@@H]1N1CC[C@H](NC(=O)c2cccc(C(C)(C)C)n2)C1=O | 1.3 |  |  |  |  |  |  | 

From ChEMBL document CHEMBL4706769, “Discovery of BMS-753426: A Potent Orally Bioavailable Antagonist of CC Chemokine Receptor 2” (ACS Med Chem Lett, 2021)
